In patent US6569878B1, “Substituted 4-amino-thiazol-2-yl compounds as cyclin-dependent kinase inhibitors” (Agouron Pharmaceuticals Inc., priority 1997, dated 2003):
pIC50, pKi: −log10 of the molar value.

What was measured:
HCT116 = experiment: Inhibition of cell growth, MTT assay, HCT116; assay type: cell-based, human; details: for inhibition at 30 µM: HCT-116, at 30 μM; for pIC50 / IC90: HCT-116
Outline: (§1)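 Cells rested 4 h after plating, then exposed to graded compound concentrations in 0.5% (v/v) DMSO for four to six days (cell-type dependent) at 37° C, 5% CO2. Viability was read by MTT (0.2 mg/mL final, 4 h at 37° C), with DMSO-solubilized formazan measured at 540 nm.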

CDK2/cyclin A = molecular target: T1, CDK2/cyclin A (Homo sapiens, UniProt P24941); experiment: Inhibition of CDK2/cyclin A retinoblastoma kinase activity; assay type: biochemical; details: read-out: Ki CDK 2/A
T1 construct: made in house; host or cells: CDK2: insect cells (baculovirus); cyclin A: E. coli, then limited proteolysis
Outline: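 Baculovirus-expressed CDK2 with excess proteolyzed cyclin A (or purified complex), 150 nM or 5 nM, phosphorylating an Rb fragment with 25 μM [32/33P]ATP, pH 7.4, 30° C, 20 min. Filter-captured radioactivity by phosphorimager; apparent Ki from fits to competitive or tight-binding competitive inhibition using measured ATP Km.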

SW-480 = experiment: Inhibition of cell growth, MTT assay, SW-480; assay type: cell-based; details: Homo sapiens, SW480, SW-480, MTT assay
Method: Inhibition of cell growth was measured using the tetrazolium salt assay, which is based on the ability of viable cells to reduce 3-(4,5-dimethylthiazol-2-yl)-2,5-[2H]-diphenyltetrazolium bromide (MTT) to formazan (Mossman, Journal of Immunological Methods, vol. 65 (1983), pp. 55-58). The water-insoluble purple formazan product was then detected spectrophotometrically. Various cell lines (HCT-116, Saos-2, U2-OS, SW480, COLO-205, RXF-393, M14, MDA-MB-468, and MCF7) were grown in 96-well plates. Cells were plated in the appropriate medium at a volume of 135 μl/well in either McCoy's 5A Medium (for Saos-2, U2-OS, SW480, and HCT-116 cells), RPMI (for COLO-205, RXF-393, M14 cells), or Minimum Essential Medium Eagle (for MDA-MB-468 and MCF7 cells). Plates were incubated for four hours before addition of inhibitor compounds. Different concentrations of inhibitor compounds were added in 0.5% (v/v) dimethylsulfoxide (15 μL/well), and cells were incubated at 37° C. (5% CO2) for four to six days (depending on cell type). At the end of the incubation, MTT was added to a final concentration of 0.2 mg/mL, and cells were incubated for 4 hours more at 37° C. After centrifugation of the plates and removal of medium, the absorbance of the formazan (solubilized in dimethylsulfoxide) was measured at 540 nm. […] All results were compared to control cells treated only with 0.5% (v/v) dimethylsulfoxide.

[1] = molecular target: T2, complex of human CDK4 and cyclin D3 (Homo sapiens, UniProt P11802); experiment: Inhibition of CDK4/cyclin D retinoblastoma kinase activity (D-type cyclin is D3); assay type: biochemical; details: superscript a: D-type cyclin is D3; apparent Ki; read-out: Ki CDK 4/D
T2 construct: made in house; host or cells: insect cells, co-infected with baculovirus
Outline: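 Apparent Ki derived by fitting background-corrected activity to competitive (or, for tight binders, competitive tight-binding) equations with measured ATP Km. Rb phosphorylation by radiolabelled ATP was measured at 30°C, 20 min standard or 60 min at 5 nM complex for tight binders, via nitrocellulose capture and phosphorimager.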

[2] = molecular target: T3, human CDK1 (cdc2) and cyclin B (Homo sapiens, UniProt P06493); experiment: Inhibition of CDK1(cdc2)/cyclin B histone H1 kinase activity; assay type: biochemical; details: read-out: Ki CDK 1/B
T3 construct: purchased New England Biolabs (Beverly Mass.)
Method: Cyclin-dependent kinase activity was measured by quantifying the enzyme-catalyzed, time-dependent incorporation of radioactive phosphate from [^32P]ATP or [^33P]ATP into a protein substrate. Unless noted otherwise, assays were performed in 96-well plates in a total volume of 50 μL, in the presence of 10 mM HEPES (N-[2-hydroxyethyl]piperazine-N′-[2-ethanesulfonic acid]) (pH 7.4), 10 mM MgCl2, 25 μM adenosine triphosphate (ATP), 1 mg/mL ovalbumin, 5 μg/mL leupeptin, 1 mM dithiothreitol, 10 mM β-glycerophosphate, 0.1 mM sodium vanadate, 1 mM sodium fluoride, 2.5 mM ethylene glycol-bis(β-aminoethyl ether)-N,N,N′N′-tetraacetic acid (EGTA), 2% (v/v) dimethylsulfoxide, and 0.03-0.4 μCi [^32/33P]ATP per reaction. Reactions were initiated with enzyme, incubated at 30° C., and terminated after 20 minutes by the addition of ethylenediaminetetraacetic acid (EDTA) to 250 mM. The phosphorylated substrate was then captured on a nitrocellulose or phosphocellulose membrane using a 96-well filtration manifold, and unincorporated radioactivity was removed by repeated washing with 0.85% phosphoric acid. Radioactivity was quantified by exposing the dried membranes to a phosphorimager.
Apparent Ki values were measured by assaying enzyme activity in the presence of different inhibitor compound concentrations and subtracting the background radioactivity measured in the absence of enzyme. The kinetic parameters (kcat, Km for ATP) were measured for each enzyme under the usual assay conditions by determining the dependence of initial rates on ATP concentration. Inhibition data were fit to an equation for competitive inhibition using Kaleidagraph (Synergy Software), or were fit to an equation for competitive tight-binding inhibition using the software KineTic (BioKin, Ltd.).
The complex of human CDK1 (cdc2) and cyclin B was purchased from New England Biolabs (Beverly Mass.). Alternatively, a CDK1/glutathione-S-transferase-cyclin B1 complex was purified using glutathione affinity chromatography from insect cells that had been co-infected with the corresponding baculovirus expression vectors. The assay was executed as described above at 30° C. using 2.5 units of cdc2/cyclin B, 10 μg Histone H1 protein, and 0.1-0.3 μCi [^32/33P]ATP per assay. Phosphorylated histone substrate was captured by microfiltration on a phosphocellulose P81 membrane and quantified using a phosphorimager as described above. Ki values were measured using the described curve-fitting programs.

Saos-2 = experiment: Inhibition of cell growth, MTT assay, Saos-2; assay type: cell-based; details: Homo sapiens; Saos-2, MTT assay
Outline: as §1

U2-OS = experiment: Inhibition of cell growth, MTT assay, U2-OS; assay type: cell-based; details: Homo sapiens, U2OS
Outline: as §1

T2 sequence (P11802 whole entry): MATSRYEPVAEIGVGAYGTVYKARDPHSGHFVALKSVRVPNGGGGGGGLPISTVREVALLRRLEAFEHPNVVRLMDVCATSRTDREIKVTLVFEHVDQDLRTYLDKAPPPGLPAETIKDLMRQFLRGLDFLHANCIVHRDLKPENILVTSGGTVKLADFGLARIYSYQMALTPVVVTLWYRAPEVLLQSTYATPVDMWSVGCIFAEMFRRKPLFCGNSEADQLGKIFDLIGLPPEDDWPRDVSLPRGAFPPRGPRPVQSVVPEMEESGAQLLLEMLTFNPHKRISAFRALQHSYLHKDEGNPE
T2 sequence (P30281 whole entry partner): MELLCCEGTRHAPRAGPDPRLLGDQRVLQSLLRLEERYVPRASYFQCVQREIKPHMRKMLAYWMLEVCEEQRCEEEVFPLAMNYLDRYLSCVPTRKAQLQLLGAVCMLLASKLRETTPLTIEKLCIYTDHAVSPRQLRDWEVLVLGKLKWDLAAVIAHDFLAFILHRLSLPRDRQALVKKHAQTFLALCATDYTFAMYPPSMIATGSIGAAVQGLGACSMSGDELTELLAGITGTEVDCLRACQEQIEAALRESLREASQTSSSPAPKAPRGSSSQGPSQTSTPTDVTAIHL
T3 sequence (P06493 whole entry): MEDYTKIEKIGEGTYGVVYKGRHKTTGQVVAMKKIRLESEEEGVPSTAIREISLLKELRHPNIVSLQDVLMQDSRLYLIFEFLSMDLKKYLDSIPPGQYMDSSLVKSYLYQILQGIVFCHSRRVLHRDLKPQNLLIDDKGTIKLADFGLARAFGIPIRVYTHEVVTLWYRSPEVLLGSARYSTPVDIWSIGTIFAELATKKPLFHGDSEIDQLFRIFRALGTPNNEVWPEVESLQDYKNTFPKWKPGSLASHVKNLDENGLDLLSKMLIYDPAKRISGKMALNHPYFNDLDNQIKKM
T3 sequence (P14635 whole entry partner): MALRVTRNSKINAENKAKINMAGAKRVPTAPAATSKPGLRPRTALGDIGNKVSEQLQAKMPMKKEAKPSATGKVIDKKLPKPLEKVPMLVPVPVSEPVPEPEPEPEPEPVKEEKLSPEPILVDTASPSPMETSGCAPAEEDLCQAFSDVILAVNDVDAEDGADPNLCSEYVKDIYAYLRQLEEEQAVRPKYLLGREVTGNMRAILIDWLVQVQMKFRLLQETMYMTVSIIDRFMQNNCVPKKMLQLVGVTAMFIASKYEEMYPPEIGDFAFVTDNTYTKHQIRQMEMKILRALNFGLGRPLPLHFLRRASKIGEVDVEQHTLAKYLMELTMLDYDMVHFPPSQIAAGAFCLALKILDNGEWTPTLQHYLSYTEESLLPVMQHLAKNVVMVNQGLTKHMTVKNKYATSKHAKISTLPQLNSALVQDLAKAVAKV

| pKi (CDK2/cyclin A) | pKi [1] | pKi [2] | pIC50 (HCT116; Homo sapiens) | IC90 (HCT116; Homo sapiens) [nM] | pIC50 (SW-480) | IC90 (SW-480) [nM] | pIC50 (U2-OS) | IC90 (U2-OS) [nM] | Structure (SMILES) | inhibition at 30 µM (HCT116; Homo sapiens) [%] | inhibition at 30 µM (SW-480) [%] | % inhibition of growth in parentheses after >25 (HCT116; concentration not given) | pIC50 (Saos-2) | IC90 (Saos-2) [nM] | inhibition at 10 µM (SW-480; at 10 μM) [%] | inhibition at 10 µM (HCT116; Homo sapiens, HCT-116, at 10 μM) [%] |
| --- | --- | --- | --- | --- | --- | --- | --- | --- | --- | --- | --- | --- | --- | --- | --- | --- |
| 5.21 | 5.70 | 5.46 |  |  |  |  |  |  | Nc1nc(Nc2cccnc2)sc1C(=O)c1ccccc1 [A(3), [4-Amino-2-(pyridin-3-ylamino)-thiazol-5-yl]-phenyl-methanone] | 41 | 15 |  |  |  |  |  |
| 6.53 | 6.82 | 7.28 | 4.70 | 30000 | 5.30 | 15000 |  |  | Cc1nc2ccc(Nc3nc(N)c(C(=O)c4ccccc4[N+](=O)[O-])s3)cc2[nH]1 [A(6), [4-Amino-2-(2-methyl-1H-benzoimidazol-6-ylamino)-thiazol-5-yl]-(2-nitro-phenyl)-methanone] |  |  |  |  |  |  |  |
| 6.11 | 6.85 | 6.53 | 5.22 | 25000 | 5.52 | 9000 |  |  | Nc1nc(NCCc2ccccc2)sc1C(=O)c1ccccc1[N+](=O)[O-] [C(5), (4-Amino-2-phenethylamino-thiazol-5-yl)-(2-nitro-phenyl)-methanone] |  |  |  |  |  |  |  |
| 6.64 | 7.00 | 7.28 | 4.70 | 30000 | 5.40 | 10000 |  |  | Nc1nc(Nc2ccc3nc[nH]c3c2)sc1C(=O)c1ccccc1[N+](=O)[O-] [A(9), [4-Amino-2-(1H-benzoimidazol-6-yl-amino)-thiazol-5-yl]-(2-nitro-phenyl)-methanone] |  |  |  |  |  |  |  |
| 5.32 | 5.80 |  |  |  | 4.66 |  |  |  | CN(C)c1ccc(Nc2nc(N)c(C(=O)c3ccccn3)s2)cc1 [I(19)] | 16 | 58 |  |  |  |  |  |
| 6.16 | 7.01 | 6.79 | 4.59 |  | 5.77 | 3000 |  |  | CCOC(=O)c1ccc(Nc2nc(N)c(C(=O)c3ccccc3[N+](=O)[O-])s2)cc1 [A(5), Ethyl 4-[4-Amino-5-(2-nitro-benzoyl)-thiazol-2-ylamino]-benzoate] | 85 |  |  |  |  |  |  |
| 6.49 | 8.82 | 6.64 | 4.74 | > 25000 |  |  | 5.10 | 12000 | CN1CCN(c2ccc(Nc3nc(N)c(C(=O)c4c(Cl)cc(Br)c(N)c4Cl)s3)cc2)CC1 [C(96), (3-Amino-4-bromo-2,6-dichloro-phenyl)-{4-amino-2-[4-(4-methyl-piperazin-1-yl)-phenylamino]-thiazol-5-yl}-methanone] |  |  | (82%) | 5.38 | 10000 |  |  |
| 5.51 | 5.70 | 5.57 |  |  |  |  |  |  | Nc1nc(Nc2ccccc2)sc1C(=O)c1ccccn1 [A(4), (4-Amino-2-phenylamino-thiazol-5-yl)-pyridin-2-yl-methanone] | 29 | 66 |  |  |  | 0 |  |
| 6.49 | 6.38 | 7.52 |  |  |  |  |  |  | Nc1nc(Nc2ccc(C(=O)O)cc2)sc1C(=O)c1ccccc1[N+](=O)[O-] [E(1), 4-[4-Amino-5-(2-nitro-benzoyl)-thiazol-2-ylamino]-benzoic Acid] | 17 | 23 |  |  |  |  | 17 |
| 8.07 | 7.68 | 7.55 | 5.96 | 2800 |  |  | 5.52 | 5200 | CNS(=O)(=O)c1ccc(Nc2nc(N)c(C(=O)c3sccc3C)s2)cc1 [C(114), 4-[4-Amino-5-(3-methyl-thiophene-2-carbonyl)-thiazol-2-ylamino]-N-methyl-benzenesulfonamide] |  |  |  | 5.89 | 4800 |  |  |
| 6.99 | 7.29 | 6.60 | 5.70 | 8000 |  |  | 5.26 | 12000 | Cc1ccsc1C(=O)c1sc(Nc2ccc(C(=O)C3COC(=O)[C@H]3N)cc2)nc1N (stereo partly drawn) [C(45), trans-3RS-Amino-4RS-{4-[4-amino-5-(3-methyl-thiophene-2-carbonyl)-thiazol-2-ylamino]-benzoyl}-dihydro-furan-2-one] |  |  |  | 5.70 | 10000 |  |  |
| 6.48 | 8.20 | 6.12 | 6.15 | 1600 |  |  | 6.00 | 1800 | C[C@@H]1CN(c2ccc(Nc3nc(N)c(C(=O)c4c(F)cccc4F)s3)cc2)C[C@H](C)N1 [J(5), {4-Amino-2-[4-(cis-3,5-dimethyl-piperazin-1-yl)-phenylamino]-thiazol-5-yl}-(2,6-difluoro-phenyl)-methanone] |  |  |  | 6.05 | 1500 |  |  |
| 6.09 | 7.02 | 7.05 | 6.15 | 30000 | 6.40 | 3000 |  |  | CN(C)c1ccc(Nc2nc(N)c(C(=O)c3ccccc3[N+](=O)[O-])s2)cc1 [C(4), [4-Amino-2-(4-dimethylamino-phenylamino)-thiazol-5-yl]-(2-nitro-phenyl)-methanone] |  |  |  |  |  |  |  |
| 7.40 | 7.79 | 7.40 | 6.06 | 2700 |  |  | 5.40 | 8000 | Nc1nc(Nc2ccc(S(N)(=O)=O)cc2)sc1C(=O)c1c(F)cccc1C(F)(F)F [C(99), 4-[4-Amino-5-(2-fluoro-6-trifluoromethyl-benzoyl)-thiazol-2-ylamino]-benzenesulfonamide] |  |  |  | 5.96 | 2900 |  |  |
| 7.07 | 7.62 | 6.61 | 5.40 | 7000 |  |  | 5.11 | 12000 | Nc1nc(Nc2ccc(N3CCSCC3)cc2)sc1C(=O)c1c(F)cccc1F [C(119), [4-Amino-2-(4-thiomorpholin-4-yl-phenylamino)-thiazol-5-yl]-(2,6-difluoro-phenyl)-methanone] |  |  |  | 5.15 | 13000 |  |  |
